# US20250236611A1, “PYRAZOLE COMPOUNDS AND USES THEREOF” (ALCON INC., priority 2021, published 2025)
# Legend:
# Format in all cases: biochemical
# Settings in all cases: 10 nM JAK enzyme, 800 nM Abl peptide, room temperature 75 min
# JAK1 = JAK1 (Homo sapiens, UniProt P23458); test: JAK assay (KINASE-GLO luminescent kinase assay), JAK1
# Method: (§1) All compounds were initially prepared as 10 mM stocks in anhydrous dimethylsulfoxide (DMSO). A 20 μL aliquot of the 10 mM solutions was transferred to individual wells in column 1 of a 96-well polypropylene microtiter plate (Corning #3363) and diluted with DMSO to give a final compound concentration of 4 mM. Test compounds were then serially diluted 1:5 in DMSO for an 11-point concentration response and further diluted in the assay buffer bringing all compound concentrations to a final range of 100 μM to 10 pM in 2.5% DMSO. The assay was performed in white 96-well, flat-bottom, half-area, non-binding assay plate (Corning #3642) in assay buffer consisting of 20 mM HEPES (pH 7.5), 10 mM MgCl2*6H2O, 100 μM sodium orthovanadate, 0.05% CHAPS and 0.1% bovine serum albumin. A 10 μL aliquot of compound from each well of the intermediate dilution plate and 20 μL of a 2×JAK substrate/enzyme solution containing acceptor substrate (800 nM Abl peptide), JAK enzyme (10 nM JAK1, JAK2, JAK3, or TYK2), and 1,4-Dithiothreitol (DTT, 2 μM) were added to all wells. The reaction was initiated by the addition of 10 μL of 4× stock solution ATP (2 μM). Reactions were thoroughly mixed manually, covered and allowed to incubate at room temperature for 75 min. Protein kinase activity was quantitated using Promega's KINASE-GLO™ luminescent Kinase Assay Kit according to the manufacturer's directions. ATP concentrations remaining in Test wells following the termination of the enzymatic reaction were compared against control wells containing equivalent amounts of DMSO containing no inhibitor (CTRL). […] Percent of Control (POC) values were determined for each concentration of compound tested according to the equation:
# (§2) [formula] • IC50 values were calculated using the following 4-parameter logistic curve-fitting algorithm:
# (§3) [formula] • IC50 values were converted to Ki values using the Cheng-Prusoff Equation: […]
# JAK2 = JAK2 (Homo sapiens, UniProt O60674); test: JAK assay (KINASE-GLO luminescent kinase assay), JAK2
# Method: as §1, §2, §3
# JAK3 = target: T1, JAK3 (Homo sapiens, UniProt P52333); test: JAK assay (KINASE-GLO luminescent kinase assay), JAK3
# T1 sequence (P52333 1-1124): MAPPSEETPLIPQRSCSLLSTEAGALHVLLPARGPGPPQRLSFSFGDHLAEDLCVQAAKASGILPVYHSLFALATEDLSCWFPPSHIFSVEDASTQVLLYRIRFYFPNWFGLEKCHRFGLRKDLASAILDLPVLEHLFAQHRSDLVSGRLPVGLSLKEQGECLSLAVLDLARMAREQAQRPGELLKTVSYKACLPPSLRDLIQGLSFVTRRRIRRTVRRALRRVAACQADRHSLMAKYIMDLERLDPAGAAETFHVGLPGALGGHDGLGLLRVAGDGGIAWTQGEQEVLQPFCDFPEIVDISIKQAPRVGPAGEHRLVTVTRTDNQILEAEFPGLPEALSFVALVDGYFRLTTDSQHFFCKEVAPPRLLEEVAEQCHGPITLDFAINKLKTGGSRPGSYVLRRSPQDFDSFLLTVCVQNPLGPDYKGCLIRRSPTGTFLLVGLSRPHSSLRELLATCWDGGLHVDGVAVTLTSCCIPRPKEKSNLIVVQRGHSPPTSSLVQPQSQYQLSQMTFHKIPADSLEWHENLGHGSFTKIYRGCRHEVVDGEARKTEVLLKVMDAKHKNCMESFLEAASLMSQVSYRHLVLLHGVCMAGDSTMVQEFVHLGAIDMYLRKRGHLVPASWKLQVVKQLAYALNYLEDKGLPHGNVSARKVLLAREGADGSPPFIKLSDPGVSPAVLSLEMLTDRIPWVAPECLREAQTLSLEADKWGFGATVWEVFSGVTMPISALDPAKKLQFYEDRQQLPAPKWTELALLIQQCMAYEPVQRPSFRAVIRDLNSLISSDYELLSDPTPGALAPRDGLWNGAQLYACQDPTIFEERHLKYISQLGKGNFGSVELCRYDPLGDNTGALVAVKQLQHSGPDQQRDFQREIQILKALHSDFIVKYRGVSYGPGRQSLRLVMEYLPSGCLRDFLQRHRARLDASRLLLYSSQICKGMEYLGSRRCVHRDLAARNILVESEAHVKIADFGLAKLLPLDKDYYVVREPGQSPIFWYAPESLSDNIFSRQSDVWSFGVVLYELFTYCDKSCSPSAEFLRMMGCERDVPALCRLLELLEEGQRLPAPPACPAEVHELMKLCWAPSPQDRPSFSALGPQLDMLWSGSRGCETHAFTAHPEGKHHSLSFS
# Method: as §1, §2, §3
# TYK2 = TYK2 (Homo sapiens, UniProt P29597); test: JAK assay (KINASE-GLO luminescent kinase assay), TYK2
# Method: as §1, with “A 20 μL aliquot of the 10 mM solutions was transferred to individual wells in column 1 of a 96-well polypropylene microtiter plate (Corning #3363) and diluted with DMSO to give a final compound concentration of 4 mM.” left out
# as §2, §3
# Sequence of JAK2 (O60674 whole entry): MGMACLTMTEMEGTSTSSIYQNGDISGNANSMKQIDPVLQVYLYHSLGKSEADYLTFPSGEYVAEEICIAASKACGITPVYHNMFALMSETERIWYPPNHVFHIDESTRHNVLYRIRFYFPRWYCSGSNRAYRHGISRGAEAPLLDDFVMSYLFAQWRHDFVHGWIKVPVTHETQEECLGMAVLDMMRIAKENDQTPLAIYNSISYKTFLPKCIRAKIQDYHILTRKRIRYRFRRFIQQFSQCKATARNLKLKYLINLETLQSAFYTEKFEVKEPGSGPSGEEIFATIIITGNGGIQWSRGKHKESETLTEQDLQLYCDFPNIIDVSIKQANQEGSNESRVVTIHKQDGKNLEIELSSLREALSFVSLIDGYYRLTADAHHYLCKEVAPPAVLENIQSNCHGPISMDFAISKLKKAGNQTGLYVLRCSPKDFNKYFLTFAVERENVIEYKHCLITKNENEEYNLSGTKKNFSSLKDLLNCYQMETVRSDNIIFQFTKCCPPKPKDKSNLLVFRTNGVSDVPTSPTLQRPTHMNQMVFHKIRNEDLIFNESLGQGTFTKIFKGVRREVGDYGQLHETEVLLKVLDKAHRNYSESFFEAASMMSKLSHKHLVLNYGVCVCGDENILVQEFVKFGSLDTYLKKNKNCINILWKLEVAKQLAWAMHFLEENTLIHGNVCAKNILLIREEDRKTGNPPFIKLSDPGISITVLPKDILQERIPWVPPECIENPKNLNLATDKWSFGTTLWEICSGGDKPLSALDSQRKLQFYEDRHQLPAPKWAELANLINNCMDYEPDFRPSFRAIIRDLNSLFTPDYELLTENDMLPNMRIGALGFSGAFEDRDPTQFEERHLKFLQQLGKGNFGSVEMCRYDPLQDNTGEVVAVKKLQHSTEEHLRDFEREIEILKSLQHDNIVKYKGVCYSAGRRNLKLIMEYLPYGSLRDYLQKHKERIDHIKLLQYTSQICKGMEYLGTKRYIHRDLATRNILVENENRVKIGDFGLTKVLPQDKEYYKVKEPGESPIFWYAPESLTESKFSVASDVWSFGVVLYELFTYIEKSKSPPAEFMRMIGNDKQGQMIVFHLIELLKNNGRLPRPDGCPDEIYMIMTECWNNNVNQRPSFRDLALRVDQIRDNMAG
# Sequence of JAK1 (P23458 whole entry): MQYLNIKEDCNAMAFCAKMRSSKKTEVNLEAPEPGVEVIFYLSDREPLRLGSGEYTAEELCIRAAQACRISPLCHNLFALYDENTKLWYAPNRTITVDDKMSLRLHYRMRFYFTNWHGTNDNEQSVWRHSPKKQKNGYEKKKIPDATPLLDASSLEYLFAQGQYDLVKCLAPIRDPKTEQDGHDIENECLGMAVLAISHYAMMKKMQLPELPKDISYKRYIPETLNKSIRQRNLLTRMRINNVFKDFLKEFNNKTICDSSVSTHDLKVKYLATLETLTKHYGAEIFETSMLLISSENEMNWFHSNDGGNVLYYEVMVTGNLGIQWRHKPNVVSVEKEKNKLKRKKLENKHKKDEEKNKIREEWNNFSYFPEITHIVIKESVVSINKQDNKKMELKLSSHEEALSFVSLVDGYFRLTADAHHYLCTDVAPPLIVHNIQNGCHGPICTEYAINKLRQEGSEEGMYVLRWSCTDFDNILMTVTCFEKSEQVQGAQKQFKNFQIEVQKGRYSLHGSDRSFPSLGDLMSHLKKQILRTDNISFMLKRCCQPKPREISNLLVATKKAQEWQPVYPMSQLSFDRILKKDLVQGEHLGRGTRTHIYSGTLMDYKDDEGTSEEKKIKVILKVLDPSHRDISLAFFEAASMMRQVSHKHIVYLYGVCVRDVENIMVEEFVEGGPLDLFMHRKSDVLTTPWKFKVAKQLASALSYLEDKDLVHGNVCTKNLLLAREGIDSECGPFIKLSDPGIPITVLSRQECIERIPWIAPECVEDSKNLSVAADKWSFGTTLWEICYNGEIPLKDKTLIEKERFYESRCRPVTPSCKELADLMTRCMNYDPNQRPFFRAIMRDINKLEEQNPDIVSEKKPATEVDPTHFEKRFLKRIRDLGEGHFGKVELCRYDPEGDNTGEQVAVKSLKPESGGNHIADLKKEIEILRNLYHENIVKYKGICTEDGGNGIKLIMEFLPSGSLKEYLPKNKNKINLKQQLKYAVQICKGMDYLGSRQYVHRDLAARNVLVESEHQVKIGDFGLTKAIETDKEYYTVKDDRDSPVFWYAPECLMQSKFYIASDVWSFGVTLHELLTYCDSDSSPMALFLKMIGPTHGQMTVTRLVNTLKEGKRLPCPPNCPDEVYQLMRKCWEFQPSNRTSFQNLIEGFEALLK
# Sequence of TYK2 (P29597 whole entry): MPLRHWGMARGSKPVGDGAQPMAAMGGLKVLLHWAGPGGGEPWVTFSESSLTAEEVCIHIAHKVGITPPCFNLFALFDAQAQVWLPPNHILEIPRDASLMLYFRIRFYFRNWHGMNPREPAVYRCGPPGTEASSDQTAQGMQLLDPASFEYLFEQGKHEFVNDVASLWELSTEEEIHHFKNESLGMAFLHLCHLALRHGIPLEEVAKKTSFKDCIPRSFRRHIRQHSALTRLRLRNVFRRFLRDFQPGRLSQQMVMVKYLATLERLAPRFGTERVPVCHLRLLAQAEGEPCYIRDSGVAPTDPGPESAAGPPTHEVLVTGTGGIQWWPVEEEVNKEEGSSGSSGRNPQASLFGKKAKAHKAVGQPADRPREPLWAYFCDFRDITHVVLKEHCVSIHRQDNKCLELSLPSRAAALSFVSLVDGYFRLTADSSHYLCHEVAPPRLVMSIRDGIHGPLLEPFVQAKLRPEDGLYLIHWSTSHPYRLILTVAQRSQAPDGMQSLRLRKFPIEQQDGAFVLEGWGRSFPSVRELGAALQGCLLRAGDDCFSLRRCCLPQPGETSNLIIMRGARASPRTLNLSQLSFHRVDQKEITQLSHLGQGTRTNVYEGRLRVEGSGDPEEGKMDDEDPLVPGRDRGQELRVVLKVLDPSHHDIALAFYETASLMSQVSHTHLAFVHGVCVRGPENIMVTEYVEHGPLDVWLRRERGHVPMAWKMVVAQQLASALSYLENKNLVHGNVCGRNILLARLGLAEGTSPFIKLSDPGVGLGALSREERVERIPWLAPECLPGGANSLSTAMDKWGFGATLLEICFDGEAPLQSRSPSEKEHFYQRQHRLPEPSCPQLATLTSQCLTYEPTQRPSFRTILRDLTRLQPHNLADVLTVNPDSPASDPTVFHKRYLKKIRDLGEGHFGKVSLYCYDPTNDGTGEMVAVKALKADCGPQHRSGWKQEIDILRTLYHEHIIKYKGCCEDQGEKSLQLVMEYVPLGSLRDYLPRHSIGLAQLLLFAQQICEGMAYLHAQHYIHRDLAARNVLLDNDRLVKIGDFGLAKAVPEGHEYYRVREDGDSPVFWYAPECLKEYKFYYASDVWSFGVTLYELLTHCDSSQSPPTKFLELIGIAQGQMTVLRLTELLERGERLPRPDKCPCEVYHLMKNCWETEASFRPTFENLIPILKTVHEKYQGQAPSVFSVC
SMILES,IC50 (JAK1) [nM],IC50 (JAK2) [nM],IC50 (JAK3) [nM],IC50 (TYK2) [nM]
Cc1cnc(NCCCN2CCOCC2)nc1-c1cnn(CCC#N)c1 [CC1═C(N═C(NCCCN2CCOCC2)N═C1)C3═C[N]],> 50000,< 100000,> 50000,< 100000
Cc1cnc(NCCN2CCCCC2)nc1-c1cnn(CCC#N)c1 [CC1═C(N═C(NCCN2CCCCC2)N═C1)C3═C[N]],> 50000,> 50000,> 50000,> 50000
Cc1cnc(NCCO)nc1-c1cnn(CCC#N)c1 [CC1═C(N═C(NCCO)N═C1)C2═C[N]],< 100000,< 100000,< 100000,< 100000
C=CCNc1ncc(C)c(-c2cnn(CCC#N)c2)n1 [CC1═C(N═C(NCC═C)N═C1)C2═C[N]],< 100000,< 100000,< 100000,< 100000
Cc1cnc(N2CCCCC2)nc1-c1cnn(CCC#N)c1 [CC1═C(N═C(N═C1)N2CCCCC2)C3═C[N]],> 50000,> 50000,> 50000,> 50000
Cc1cc(Nc2ncc(Cl)c(-c3cnn(CCC#N)c3)n2)no1 [CC1═CC(═NO1)NC2═NC(═C],< 1000,< 100,< 1000,< 100
Cc1ccc(Nc2ncc(C)c(-c3cnn(CC4(Cl)CC4)c3)n2)cc1S(C)(=O)=O [CC1═CC═C(NC2═NC(═C(C)C═N2)C3═C[N]],< 100,< 100,< 100,< 100
Cc1cncc(Nc2ncc(C)c(-c3cnn(CC4(CF)CCC4)c3)n2)c1 [CC1═CN═CC(═C1)NC2═NC(═C],< 100,< 10,< 100,< 100
Cc1cc(Nc2ncc(C)c(-c3cnn(CC4(CF)CCC4)c3)n2)ccn1 [CC1═NC═CC(═C1)NC2═NC(═C],< 1000,< 10,< 100,< 100
Cc1cc(Nc2ncc(Cl)c(-c3cnn(CCC#N)c3)n2)on1 [CC1═NOC(═C1)NC2═NC(═C],< 100,< 10,< 1000,< 100
Cc1cc(Nc2nc3c(c(-c4cnn(CC5(C#N)COC5)c4)n2)CN(C(=O)OC(C)(C)C)C3)sn1 [CC1═NSC(═C1)NC2═NC(═C3CN],> 50000,> 50000,> 50000,> 50000
Cc1cc(Nc2ncc(C)c(-c3cnn(CC4(CF)CCC4)c3)n2)sn1 [CC1═NSC(═C1)NC2═NC═C(C)C],< 10,< 10,< 10,< 10
CC(C)(C)OC(=O)N1CC(C#N)(Cn2cc(-c3nc(Nc4ccc(C(N)=O)cc4)ncc3Cl)cn2)C1 [CC(C)(C)OC(═O)N1CC(C1)(C[N]2C═C],< 100,< 10,< 100,< 100
CC(C)(C)OC(=O)N1CC(CF)(Cn2cc(-c3nc(Nc4ccc(C(N)=O)cc4)ncc3Cl)cn2)C1 [CC(C)(C)OC(═O)N1CC(CF)(C1)C[N]2C═C],< 100,< 100,< 100,< 100
CC(C)(C)OC(=O)N1CC(CO)(Cn2cc(-c3nc(Nc4ccc(C(N)=O)cc4)ncc3Cl)cn2)C1 [CC(C)(C)OC(═O)N1CC(CO)(C1)C[N]2C═C],< 1000,< 100,< 100,< 1000
CC(C)(C)OC(=O)N1CCC(Nc2ncc(Cl)c(-c3cnn(CCC#N)c3)n2)C(F)(F)C1 (stereo not drawn) [CC(C)(C)OC(═O)N1CCC(NC2═NC(═C],> 50000,> 50000,> 50000,> 50000
CC(C)(C)OC(=O)N1CCN(c2ccc(Nc3ncc(Cl)c(-c4cnn(CCC#N)c4)n3)cc2)CC1 [CC(C)(C)OC(═O)N1CCN(CC1)C2═CC═C],< 100,< 10,< 10,< 10
CC(C)(C)OC(=O)NCc1cccc(Nc2ncc(Cl)c(-c3cnn(CC4(CF)CC4)c3)n2)c1 [CC(C)(C)OC(═O)NCC1═CC═CC],157,< 100,< 10,< 100
CC(=O)OCCc1ccc(Nc2ncc(Cl)c(-c3cnn(CCC#N)c3)n2)cc1 [CC(═O)OCCC1═CC═C(NC2═NC(═C],< 100,< 10,< 100,< 10
CCc1cnc(Nc2cc(C)ns2)nc1-c1cnn(CC2(Cl)CC2)c1 [CCC1═C(N═C(NC2═CC],< 100,< 10,< 10,< 100
CCS(=O)(=O)N1CC(CF)(Cn2cc(-c3nc(Nc4cc(C)ns4)ncc3Cl)cn2)C1 [CC[S](═O)(═O)N1CC(CF)(C[N]2C═C],< 100,< 10,< 100,< 100
CCS(=O)(=O)N1CC(CO)(Cn2cc(-c3nc(Nc4cc(C)ns4)ncc3Cl)cn2)C1 [CC[S](═O)(═O)N1CC(CO)],< 1000,< 1000,< 100000,< 100000
Cn1ccc(Nc2ncc(Cl)c(-c3cnn(CC4(C#N)COC4)c3)n2)cc1=O [CN1/C═C\C(═C/C1═O)NC2═NC(═C],< 1000,< 10,< 1000,< 1000
Cc1cnc(Nc2ccc3c(c2)C(=O)N(C)C3=O)nc1-c1cnn(CC2(Cl)CC2)c1 [CN1C(═O)C2═C(C═C(NC3═NC(═C],< 1000,< 10,< 100,< 100
Cc1cnc(Nc2ccc3c(c2)CN(C)C3)nc1-c1cnn(CC2(CF)CC2)c1 [CN1CC2═CC═C(NC3═NC(═C],< 10,< 10,< 10,< 10
Cc1cc(Nc2ncc(C)c(-c3cnn(CC4(CF)CC4)c3)n2)ccc1N1CCN(C)CC1 [CN1CCN(CC1)C2═C(C)C═C(NC3═NC],< 100,< 10,< 10,< 10
Cc1cnc(Nc2ccc(N3CCN(C)CC3)cc2)nc1-c1cnn(CC2(C#N)CC2)c1 [CN1CCN(CC1)C2═CC═C(NC3═NC(═C(C([2H])],< 100,< 10,< 10,< 10
